Experimental data as given in article PMC11203266, “Continuous evolution of compact protein degradation tags regulated by selective molecular glues” (Science (New York, N.Y.), 2024).

How the values were obtained:
[1] = biological target: T1, TUB (Homo sapiens, UniProt P50607); experiment: Western blot of TUB in HEK293T cells; assay type: cell-based; settings: 100-10,000 nM
T1 construct: endogenous in cells; host or cells: HEK293T
Protocol: HEK293T or K562 cells were plated at a density of 1.6 x 10^5 cells/well in a 24-well plate coated with poly-D-lysine (Corning) in 1 mL media (DMEM + 10% FBS for HEK293T cells and RPMI + 10% FBS for K562 cells). After 16–18 hrs, cells were treated with either DMSO or the indicated concentration of small molecules to a 0.5% final concentration of DMSO. Plates were incubated at 37 °C, 5% CO2 for 24 hours for all cell lines except endogenously tagged PLK1–SD40 HEK293T cells, which were incubated for 2 hours. Cells were washed with PBS and then lysed for 30 minutes at 4 °C in radioimmunoprecipitation assay (RIPA; 25 mM Tris-HCl, 150 mM NaCl, 1% NP-40, 1% sodium deoxycholate, 0.1% SDS, pH ~ 7.6) buffer containing 1 mM phenylmethylsulfonyl fluoride (PMSF; Sigma Aldrich) and 1 x EDTA-free protease inhibitor cocktail (Roche). Lysates were centrifuged for 20 min @18,000 x g to isolate the soluble fractions. Protein concentration in clarified lysates was quantified using Pierce BCA Protein Assay Kit (Thermo Scientific) according to the manufacturer’s protocol. Clarified lysates were mixed with NuPAGE LDS Sample Buffer (Thermo NP0007) containing 10 mM DTT and boiled for 10 minutes. Gel electrophoresis was performed on boiled samples using polyacrylamide gels (Invitrogen NP0329BOX) with equal amounts of total protein in each lane. […]
values were calculated using a Welch's t-test. […]

[2] = tested on: SD40–BRD4; experiment: Immunoblot, endogenous SD40-tagged BRD4 in K562 cells; assay type: cell-based, human; settings: 24 hrs
From the text: Next, we evaluated the installation of SD40 at endogenous genomic target genes in mammalian cells using twin prime editing (twin PE) ([54], [75]). We optimized prime editing parameters, including spacer position and prime editor construct ([30]), to insert SD40 at the C-terminus of PLK1 with 26% editing efficiency and 8.8% indel byproducts in HEK293T cells (Fig. 3E, fig. S13), enabling rapid isolation of a homozygous PLK1-SD40 cell line. PLK1 is an essential cell-state regulator ([76]), and complete knockdown for 24 hours is cytotoxic. […] We also used twin prime editing to install SD40 at the N-terminus of BRD4 yielding 7.7% knock-in of SD40 in K562 cells (Fig. 3E, S13) with 4.3% indel byproducts. […] For comparison, we also attempted scarless insertion of SD40 and FKBP12^F36V from the dTag system (324 base pairs) ([17]) at the N-terminus of BRD4 using Cas9 nuclease-directed HDR using two different sgRNAs and a double-strand donor DNA template. […]
HEK293T or K562 cells were plated at a density of 1.6 x 10^5 cells/well in a 24-well plate coated with poly-D-lysine (Corning) in 1 mL media (DMEM + 10% FBS for HEK293T cells and RPMI + 10% FBS for K562 cells). […] Protein concentration in clarified lysates was quantified using Pierce BCA Protein Assay Kit (Thermo Scientific) according to the manufacturer’s protocol. […]

T1 sequence (P50607 whole entry): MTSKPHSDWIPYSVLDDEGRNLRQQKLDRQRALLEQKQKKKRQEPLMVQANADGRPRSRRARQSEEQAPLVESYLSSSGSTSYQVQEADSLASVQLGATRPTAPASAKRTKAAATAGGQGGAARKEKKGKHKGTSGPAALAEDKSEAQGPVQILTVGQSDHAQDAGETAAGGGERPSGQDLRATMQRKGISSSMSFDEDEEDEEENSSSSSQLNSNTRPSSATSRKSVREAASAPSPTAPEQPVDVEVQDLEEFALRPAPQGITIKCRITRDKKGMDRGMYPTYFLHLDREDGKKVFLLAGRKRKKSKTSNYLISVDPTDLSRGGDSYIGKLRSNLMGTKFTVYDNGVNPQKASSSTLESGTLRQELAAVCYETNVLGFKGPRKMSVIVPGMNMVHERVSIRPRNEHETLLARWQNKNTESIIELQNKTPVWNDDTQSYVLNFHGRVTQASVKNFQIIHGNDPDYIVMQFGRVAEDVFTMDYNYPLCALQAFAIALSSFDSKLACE

Structure (SMILES): O=C1CCC(N2C(=O)c3ccc(N4CCOCC4)cc3C2=O)C(=O)N1 (centres unmarked) [PT-179]
- TUB degradation (in words) [1]: does not degrade TUB
- SD40–BRD4 degradation (in words) [2]: robust degradation
